The text below walks through data of US6875748B2, “Compositions and methods for in vivo delivery of polynucleotide-based therapeutics” (Vical Incorporated, priority 2000, dated 2005).

Read-outs that look alike come from different tables or passages of the source. A value given as a limit tells only on which side of the number the result lay.

Data set [1] relates to mouse quadriceps muscle. The data set can be described thus: Luciferase expression in mouse quadriceps muscle after i.m. injection of plasmid VR1255 with auxiliary agents. As to conditions: for ability to enhance in vivo expression relative to identical composition without the compound: mouse; for luciferase expression versus 150 mM sodium phosphate alone: day 7.
A short description of another data set: pH of the salt solutions. The format is physicochemical.
In data set [2] the test system is mouse quadriceps muscle. Nature of the data set: Luciferase expression in mouse quadriceps muscle 7 days after i.m. injection of plasmid VR1223 in salt solutions. The format is in vivo. Details: lux: unit: ng/muscle. The note with it: for ng Lux/Muscle: 50 μg VR1223 in 50 μl; for ng Lux/Muscle / Fold Saline: salts at 150 mM, day 7; for luciferase expression compared with saline (words): 150 mM solutions; for lux: 7-day luciferase expression, VR1223; for Fold Saline: relative to saline.

Data set [3] can be described thus: Osmolarity of the salt solutions. Format: physicochemical. As to conditions: for Osm: 150 mM unless otherwise indicated.
[4] abbreviates: 150 mM unless otherwise indicated.

On to `C[C@H](CCC(=O)NCCC[N+](C)(C)CCCS(=O)(=O)[O-])[C@H]1CC[C@H]2[C@@H]3[C@H](O)C[C@@H]4C[C@H](O)CC[C@]4(C)[C@H]3C[C@H](O)[C@]12C` [CHAPS, 3[(3-Cholamidopropyl)dimethylammonio]-1-propanesulfonate], for which the “ability to enhance in vivo expression relative to identical composition without the compound” value in the data set with mouse quadriceps muscle [1] is listed as “no ability to enhance”.
As to `[Ca+2].[Cl-].[Cl-]` [Calcium Chloride], in “pH of the salt solutions” (setting [4]), the pH was 5.5. In addition, the “ng Lux/Muscle” value in the data set on mouse quadriceps muscle [2] is listed as 0.3 ng/Muscle. The “luciferase expression compared with saline (words)” value with mouse quadriceps muscle [2] (VR1223, day 7) is recorded as “no ability to enhance”. Moreover, the lux with mouse quadriceps muscle [2] (Table III-A) and in the data set with mouse quadriceps muscle [2] (Table III-B) was 0.3 in each case. Moreover, in the data set on mouse quadriceps muscle [2], the “Fold Saline” value is below 0.1 Fold. The Osm in data set [3] is listed as 362 mmol/kg.
Turning to `C[S+](C)[O-]` [DMSO, dimethylsulfoxide], in the data set on mouse quadriceps muscle [1], the “luciferase expression versus 150 mM sodium phosphate alone” value is “significantly increased expression”.
The same measure, in the same setting: for `O=C(O)CN(CCN(CC(=O)O)CC(=O)O)CC(=O)O` [EDTA, ethylenediamine tetraacetic acid] the value was “significantly increased expression”.
Consider `O=C(O)CN(CCOCCOCCN(CC(=O)O)CC(=O)O)CC(=O)O` [EGTA], for which the “ability to enhance in vivo expression relative to identical composition without the compound” value with mouse quadriceps muscle [1] was “no ability to enhance”.
Regarding `[Cl][Fe][Cl]` [Ferrous Chloride], in the data set “pH of the salt solutions” (setting [4]), the pH was determined as 5.0. In the data set with mouse quadriceps muscle [2], the “ng Lux/Muscle” value is reported as 0.0 ng/Muscle. The “luciferase expression compared with saline (words)” value with mouse quadriceps muscle [2] (VR1223, day 7) was “no ability to enhance”. For the same molecule, the lux with mouse quadriceps muscle [2] (Table III-A) and in the data set on mouse quadriceps muscle [2] (Table III-B) was 0.0 throughout. Besides, the “Fold Saline” value in the data set with mouse quadriceps muscle [2] was below 0.1 Fold. Moreover, the Osm in data set [3] came out at 362 mmol/kg.
Turning to `CCCCCCC(=O)N(C)C[C@H](O)[C@@H](O)[C@H](O)[C@H](O)CO` [MEGA 7, heptanoyl-N-methyl-glucamide], the “ability to enhance in vivo expression relative to identical composition without the compound” value in the data set with mouse quadriceps muscle [1] is “no ability to enhance”.
On the same count and under the same terms, the entry for `CCCCCCCC(=O)N(C)C[C@H](O)[C@@H](O)[C@H](O)[C@H](O)CO` [MEGA 8, octanyol-N-methyl-glucamide] is “no ability to enhance”.
With `CCCCCCCCC(=O)N(C)C[C@H](O)[C@@H](O)[C@H](O)[C@H](O)CO` [MEGA 9, nonanoyl-N-methyl-glucamide], in the data set with mouse quadriceps muscle [1], the “ability to enhance in vivo expression relative to identical composition without the compound” value is on record as “no ability to enhance”.
In the case of `[Cl-].[Cl-].[Mg+2]` [Magnesium Chloride], the pH in the data set “pH of the salt solutions” (setting [4]) came to 5.5. In the data set on mouse quadriceps muscle [2], the “ng Lux/Muscle” value is listed as 1 ng/Muscle and the “Fold Saline” value is recorded as below 0.1 Fold. In addition, the “luciferase expression compared with saline (words)” value with mouse quadriceps muscle [2] (VR1223, day 7) is on record as “no ability to enhance”. The lux with mouse quadriceps muscle [2] (Table III-A) is 1. Also, in the data set with mouse quadriceps muscle [2] (Table III-B), the lux amounted to 1. For the same molecule, in data set [3], the Osm came out at 360 mmol/kg.
Turning to `[Cl-].[K+]` [Potassium Chloride], the pH in “pH of the salt solutions” (setting [4]) is on record as 5.5. For the same molecule, the “ng Lux/Muscle” value in the data set on mouse quadriceps muscle [2] is reported as 124 ng/Muscle. In addition, in the data set on mouse quadriceps muscle [2] (VR1223, day 7), the “luciferase expression compared with saline (words)” value was “no ability to enhance”. Moreover, the lux in the data set on mouse quadriceps muscle [2] (Table III-A) and in the data set with mouse quadriceps muscle [2] (Table III-B) was 124 in each case. Moreover, in the data set on mouse quadriceps muscle [2], the “Fold Saline” value amounted to 1.0 Fold. In addition, in data set [3], the Osm came out at 280 mmol/kg.
Consider `O=P(O)(O)O` [Potassium Phosphate], for which, in “pH of the salt solutions” (setting [4]), the pH came out at 7.5. For the same molecule, the “ng Lux/Muscle” value in the data set on mouse quadriceps muscle [2] is on record as 449 ng/Muscle. In addition, in the data set with mouse quadriceps muscle [2] (VR1223, day 7), the “luciferase expression compared with saline (words)” value is “stimulated expression just as well as solution of 150 mM sodium phosphate”. In addition, the lux with mouse quadriceps muscle [2] (Table III-A) and in the data set with mouse quadriceps muscle [2] (Table III-B) was 449 in each case. Also, the “Fold Saline” value in the data set on mouse quadriceps muscle [2] came to 3.8 Fold. Moreover, the Osm in data set [3] is listed as 323 mmol/kg.
As for `CCCCCCCCCCCCOS(=O)(=O)[O-].[Na+]` [SDS, sodium dodecyl sulfate], in the data set with mouse quadriceps muscle [1], the “luciferase expression versus 150 mM sodium phosphate alone” value is listed as “significantly increased expression”.
For `CC(=O)[O-].[Na+]` [Sodium Acetate], the pH in the data set “pH of the salt solutions” (setting [4]) is reported as 6.5. Further, the “ng Lux/Muscle” value in the data set on mouse quadriceps muscle [2] amounted to 498 ng/Muscle. In the data set with mouse quadriceps muscle [2] (VR1223, day 7), the “luciferase expression compared with saline (words)” value is given as “increased luciferase expression compared with saline”. Also, the lux with mouse quadriceps muscle [2] (Table III-A) and with mouse quadriceps muscle [2] (Table III-B) was 498 each time. Also, the “Fold Saline” value with mouse quadriceps muscle [2] was 4.1 Fold. Further, in data set [3], the Osm was 271 mmol/kg.
With `O=C([O-])O.[Na+]` [Sodium Bicarbonate], the pH in “pH of the salt solutions” is 9.0. For the same molecule, in “pH of the salt solutions” (setting [4]), the pH came to 9.0. In the data set on mouse quadriceps muscle [2], the “ng Lux/Muscle” value was 330 ng/Muscle and the “Fold Saline” value is 2.8 Fold. Also, in the data set with mouse quadriceps muscle [2] (VR1223, day 7), the “luciferase expression compared with saline (words)” value is “increased luciferase expression compared with saline” and the “luciferase expression, fold over saline” value was determined as 2.8 fold. Moreover, the lux in the data set on mouse quadriceps muscle [2] (Table III-A) came out at 330. Besides, the lux in the data set with mouse quadriceps muscle [2] (Table III-B) was 330. In data set [3], the Osm is recorded as 727 mmol/kg.
Regarding `O=C([O-])CC(O)(CC(=O)[O-])C(=O)[O-].[Na+].[Na+].[Na+]` [Sodium Citrate], the pH in “pH of the salt solutions” (setting [4]) amounted to 7.5. The “ng Lux/Muscle” value in the data set on mouse quadriceps muscle [2] was 90 ng/Muscle. For the same molecule, the “luciferase expression compared with saline (words)” value was “no ability to enhance” with mouse quadriceps muscle [2] (VR1223, day 7, listed as 150 mM sodium citrate); “same luciferase expression as saline” with mouse quadriceps muscle [2] (VR1223, day 7, listed as Sodium citrate); “the same as with saline” in the data set on mouse quadriceps muscle [2] (VR1223, day 7, listed as sodium citrate). For the same molecule, the lux with mouse quadriceps muscle [2] (Table III-A) is 108; with mouse quadriceps muscle [2] (Table III-A, listed as 50 mM Sodium Citrate), 83; in the data set with mouse quadriceps muscle [2] (Table III-B) it was 108; with mouse quadriceps muscle [2] (Table III-B, listed as 50 mM Sodium Citrate) it was 83. Moreover, the “Fold Saline” value in the data set with mouse quadriceps muscle [2] is on record as below 0.1 Fold. In data set [3], the osmolarity stood at 394 mmol/kg. In addition, the Osm worked out at 394 mmol/kg in data set [3] and 164 mmol/kg in data set [3] (listed as 50 mM Sodium Citrate).
Consider `O=C([O-])C(=O)[O-].[Na+].[Na+]` [Sodium Oxalate], for which the pH in the data set “pH of the salt solutions” (setting [4]) worked out at 6.5. Moreover, the “ng Lux/Muscle” value in the data set on mouse quadriceps muscle [2] came out at 15 ng/Muscle. For the same molecule, the “luciferase expression compared with saline (words)” value in the data set on mouse quadriceps muscle [2] (VR1223, day 7) is given as “inhibited luciferase expression”; with mouse quadriceps muscle [2] (VR1223, day 7, listed as 150 mM sodium oxalate) it was “no ability to enhance”. Moreover, the lux in the data set on mouse quadriceps muscle [2] (Table III-A) and in the data set with mouse quadriceps muscle [2] (Table III-B) was 15 throughout. Besides, in the data set with mouse quadriceps muscle [2], the “Fold Saline” value was below 0.1 Fold. Further, the Osm in data set [3] was determined as 346 mmol/kg.
As for `O=P([O-])([O-])OP(=O)([O-])[O-].[Na+].[Na+].[Na+].[Na+]` [Sodium Pyrophosphate], the pH in the data set “pH of the salt solutions” (setting [4]) is given as 9.0. In addition, the lux in the data set on mouse quadriceps muscle [2] (Table III-A) and in the data set with mouse quadriceps muscle [2] (Table III-B) was 3 throughout. Further, in data set [3], the Osm is on record as 363 mmol/kg.
`OC[C@H]1O[C@H](OC[C@H]2O[C@H](OC[C@H]3O[C@H](O[C@]4(CO)O[C@H](CO)[C@@H](O)[C@@H]4O)[C@H](O)[C@@H](O)[C@@H]3O)[C@H](O)[C@@H](O)[C@H]2O)[C@H](O)[C@@H](O)[C@H]1O` [Stachyose, stachyose]: the “luciferase expression versus 150 mM sodium phosphate alone” value with mouse quadriceps muscle [1] was “significantly increased expression”.
In the case of `CCCCCCCCCCCCCCCC[N+](C)(C)CCCS(=O)(=O)[O-]` [Zwittergent, n-hexadecyl-N,N-dimethyl-3-ammonio-1-propanesulfonate], the “ability to enhance in vivo expression relative to identical composition without the compound” value in the data set with mouse quadriceps muscle [1] is recorded as “no ability to enhance”.
For the molecule `OCc1ccccc1` [benzyl alcohol], in the data set with mouse quadriceps muscle [1], the “ability to enhance in vivo expression relative to identical composition without the compound” value is reported as “no ability to enhance”.
As to `CCCCCCCCCCCCO[C@@H]1O[C@H](CO)[C@@H](O[C@H]2O[C@H](CO)[C@@H](O)[C@H](O)[C@H]2O)[C@H](O)[C@H]1O` [n-Dodecylmaltoside, n-dodecylmaltoside], the “ability to enhance in vivo expression relative to identical composition without the compound” value with mouse quadriceps muscle [1] is given as “no ability to enhance”.
Still for that read-out and setting: for `CCCCCCCCO[C@@H]1O[C@H](CO)[C@@H](O)[C@H](O)[C@H]1O` [n-octylglucoside] the value was “no ability to enhance”.
Consider “(octyl phenoxy) polyethoxyethanol [IGEPAL CA 630®]”, for which the “luciferase expression versus 150 mM sodium phosphate alone” value in the data set on mouse quadriceps muscle [1] was “significantly increased expression”.
Consider Actin, for which, in the data set with mouse quadriceps muscle [1], the “ability to enhance in vivo expression relative to identical composition without the compound” value is “no ability to enhance”.
Still for that read-out and setting: the entry for Macrogol-50 stearate [MYRJ 53] is “no ability to enhance”; for PEG-40 Stearate [MYRJ 52] it is “no ability to enhance”.
Take “octyl phenol ethylene oxide condensate with about 7-8 ethylene oxide units [Triton X-114]”: in the data set on mouse quadriceps muscle [1], the “luciferase expression versus 150 mM sodium phosphate alone” value is “significantly increased expression”.
Same read-out and setting: the entry for “octyl phenol ethylene oxide condensate with about 9 ethylene oxide units [Nonidet P40]” is “significantly increased expression”.
On to polyoxyethylene 10 cetyl ether, for which the “ability to enhance in vivo expression relative to identical composition without the compound” value with mouse quadriceps muscle [1] is “no ability to enhance”.
As to polyoxyethylene 20 stearyl ether, the “ability to enhance in vivo expression relative to identical composition without the compound” value with mouse quadriceps muscle [1] was “no ability to enhance”.
On to “polyoxyethylene sorbitan monolaurate [Tween 20]”, for which, in the data set with mouse quadriceps muscle [1], the “luciferase expression versus 150 mM sodium phosphate alone” value is “significantly increased expression”.
For the molecule “polyoxyethylene sorbitan monooleate [Tween 80]”, in the data set with mouse quadriceps muscle [1], the “luciferase expression versus 150 mM sodium phosphate alone” value is “significantly increased expression”.
Regarding polysorbate 40 [Tween-40®], in the data set with mouse quadriceps muscle [1], the “ability to enhance in vivo expression relative to identical composition without the compound” value is “no ability to enhance”.
As for sorbitan monolaurate [SPAN 20], the “ability to enhance in vivo expression relative to identical composition without the compound” value in the data set on mouse quadriceps muscle [1] is reported as “no ability to enhance”.
